Test results as given in US5202315A, “Cephalosporin compounds” (Lucky, Ltd., priority 1989, dated 1993).
In brackets after ≈: the same amount, converted by molar mass. Read-outs that look alike come from different tables or passages of the source.

Assays:
[1] = system: Acinetobacter calcoaceticus ATCC 15473; assay: Antibacterial activity, MIC; format: cell-based; conditions: ATCC15473, ATCC 15473, agar two-fold dilution, 37° C., 20 hours, read-out: MIC
In short: (§1)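 Agar two-fold dilution method: compound serially diluted two-fold in Mueller-Hinton agar, spotted with 2 μl of a 10^7 CFU/ml inoculum of each standard strain, then incubated at 37 °C for 20 h.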

[2] = system: Bacillus cereus ATCC 11778; assay: Antibacterial activity, MIC; format: cell-based; conditions: ATCC11778, ATCC 11778, agar two-fold dilution, 37° C., 20 hours, read-out: MIC
In short: as §1

[3] = system: Bacillus megaterium ATCC 9885; assay: Antibacterial activity, MIC; format: cell-based; conditions: Priestia megaterium, ATCC9885; ATCC 9885; agar two-fold dilution, 37° C., 20 hours; read-out: MIC
In short: as §1

[4] = system: Citrobacter freundii ATCC 8090; assay: Antibacterial activity, MIC; format: cell-based; conditions: ATCC8090, ATCC 8090, agar two-fold dilution, 37° C., 20 hours, read-out: MIC
In short: as §1

[5] = system: Enterobacter aerogenes ATCC 29751; assay: Antibacterial activity, MIC; format: cell-based; conditions: Klebsiella aerogenes, ATCC29751; ATCC 29751; agar two-fold dilution, 37° C., 20 hours; read-out: MIC
In short: as §1

[6] = system: Enterobacter cloacae ATCC 27508; assay: Antibacterial activity, MIC; format: cell-based; conditions: ATCC27508, ATCC 27508, agar two-fold dilution, 37° C., 20 hours, read-out: MIC
In short: as §1

[7] = system: Escherichia coli ATCC 10536; assay: Antibacterial activity, MIC; format: cell-based; conditions: ATCC10536, agar two-fold dilution, 37° C., 20 hours
In short: as §1

[8] = system: Escherichia coli ATCC 25922; assay: Antibacterial activity, MIC; format: cell-based; conditions: ATCC25922, agar two-fold dilution, 37° C., 20 hours
In short: as §1

[9] = system: Klebsiella pneumoniae ATCC 10031; assay: Antibacterial activity, MIC; format: cell-based; conditions: ATCC10031, ATCC 10031, agar two-fold dilution, 37° C., 20 hours, read-out: MIC
In short: as §1

[10] = system: Micrococcus luteus ATCC 9341; assay: Antibacterial activity, MIC; format: cell-based; conditions: ATCC9341, ATCC 9341, agar two-fold dilution, 37° C., 20 hours, read-out: MIC
In short: as §1

[11] = system: Morganella morganii ATCC 8076h; assay: Antibacterial activity, MIC; format: cell-based; conditions: ATCC8076H, agar two-fold dilution, 37° C., 20 hours
In short: as §1

[12] = system: Proteus mirabilis ATCC 25933; assay: Antibacterial activity, MIC; format: cell-based; conditions: ATCC25933, ATCC 25933, agar two-fold dilution, 37° C., 20 hours, read-out: MIC
In short: as §1

[13] = system: Proteus vulgaris ATCC 6059; assay: Antibacterial activity, MIC; format: cell-based; conditions: ATCC6059, ATCC 6059, agar two-fold dilution, 37° C., 20 hours, read-out: MIC
In short: as §1

[14] = system: Providencia rettgeri ATCC 9250; assay: Antibacterial activity, MIC; format: cell-based; conditions: ATCC9250, agar two-fold dilution, 37° C., 20 hours
In short: as §1

[15] = system: Pseudomonas aeruginosa ATCC 10145; assay: Antibacterial activity, MIC; format: cell-based; conditions: ATCC10145, ATCC 10145, agar two-fold dilution, 37° C., 20 hours, read-out: MIC
In short: as §1

[16] = system: Pseudomonas aeruginosa ATCC 25619; assay: Antibacterial activity, MIC; format: cell-based; conditions: ATCC25619, ATCC 25619, agar two-fold dilution, 37° C., 20 hours, read-out: MIC
In short: as §1

[17] = system: Pseudomonas aeruginosa ATCC 27853; assay: Antibacterial activity, MIC; format: cell-based; conditions: ATCC27853, ATCC 27853, agar two-fold dilution, 37° C., 20 hours, read-out: MIC
In short: as §1

[18] = system: Salmonella typhimurium ATCC 14028; assay: Antibacterial activity, MIC; format: cell-based; conditions: Salmonella enterica; ATCC 14028; agar two-fold dilution, 37° C., 20 hours; read-out: MIC
In short: as §1

[19] = system: Serratia marcescens ATCC 27117; assay: Antibacterial activity, MIC; format: cell-based; conditions: ATCC27117, ATCC 27117, agar two-fold dilution, 37° C., 20 hours, read-out: MIC
In short: as §1

[20] = system: Shigella flexneri ATCC 11836; assay: Antibacterial activity, MIC; format: cell-based; conditions: ATCC11836, agar two-fold dilution, 37° C., 20 hours
In short: as §1

[21] = system: Shigella sonnei ATCC 11060; assay: Antibacterial activity, MIC; format: cell-based; conditions: ATCC11060, ATCC 11060, agar two-fold dilution, 37° C., 20 hours, read-out: MIC
In short: as §1

[22] = system: Staphylococcus aureus ATCC 10537; assay: Antibacterial activity, MIC; format: cell-based; conditions: ATCC10537, ATCC 10537, agar two-fold dilution, 37° C., 20 hours, read-out: MIC
In short: as §1

[23] = system: Staphylococcus aureus ATCC 6538p; assay: Antibacterial activity, MIC; format: cell-based; conditions: ATCC6538P, ATCC 6538p, agar two-fold dilution, 37° C., 20 hours, read-out: MIC
In short: as §1

[24] = system: Staphylococcus epidermidis ATCC 12228; assay: Antibacterial activity, MIC; format: cell-based; conditions: ATCC12228, ATCC 12228, agar two-fold dilution, 37° C., 20 hours, read-out: MIC
In short: as §1

[25] = system: Streptococcus faecalis ATCC 29212; assay: Antibacterial activity, MIC; format: cell-based; conditions: Enterococcus faecalis, ATCC29212; ATCC 29212; agar two-fold dilution, 37° C., 20 hours; read-out: MIC
In short: as §1

[26] = In-vivo absorbency (plasma concentrations & pharmacokinetic parameters); parameters: species or system SD rat (male); conditions: plasma, SD male rat, iv 20 mg/kg; for half-life: rat, iv, 20 mg/kg
Source text: The blood samples from the femoral vein of the rats were taken every hour after administration, and analyzed by bio-assay(agar well method).
Tested animal: SD male Rat (220~340 g)

[27] = as above; parameters: species or system SD rat (male); conditions: plasma, SD male rat, iv 20 mg/kg, read-out: Plasma Conc.
Escherichia coli = assay: Antibacterial activity against clinically isolated strains, MIC; format: cell-based; conditions: 38 clinical isolates, broth microdilution test
Klebsiella pneumoniae = assay: as above; format: cell-based; conditions: 10 clinical isolates, broth microdilution test
[28] = system: Staphylococcus aureus methicillin susceptible; assay: as above; format: cell-based; conditions: methicillin susceptible, 42 clinical isolates, broth microdilution test
[29] = system: Staphylococcus aureus methicillin resistant; assay: as above; format: cell-based; conditions: methicillin resistant, 7 clinical isolates, broth microdilution test
Pseudomonas aeruginosa = assay: as above; format: cell-based; conditions: 54 clinical isolates, broth microdilution test

## CC[n+]1c(N)cc(N)nc1SCC1=C(C(=O)[O-])N2C(=O)C(NC(=O)/C(=N\OCC(=O)O)c3csc(N)n3)C2SC1 (centres unmarked) [Compound I-8]
[1]
  MIC: 8 µg/mL (≈ 13.1 µM)
[2]
  MIC: 64 µg/mL (≈ 105 µM)
[3]
  MIC: 0.5 µg/mL (≈ 0.82 µM)
[4]
  MIC: 0.031 µg/mL (≈ 0.0508 µM)
[5]
  MIC: 1 µg/mL (≈ 1.64 µM)
[6]
  MIC: ≤ 0.008 µg/mL
[7]
  MIC: 0.031 µg/mL (≈ 0.0508 µM)
[8]
  MIC: 0.031 µg/mL (≈ 0.0508 µM)
[9]
  MIC: 0.016 µg/mL (≈ 0.0262 µM)
[10]
  MIC: 0.13 µg/mL (≈ 0.213 µM)
[11]
  MIC: ≤ 0.008 µg/mL
[12]
  MIC: 0.031 µg/mL (≈ 0.0508 µM)
[13]
  MIC: 0.016 µg/mL (≈ 0.0262 µM)
[14]
  MIC: 0.016 µg/mL (≈ 0.0262 µM)
[15]
  MIC: 4 µg/mL (≈ 6.56 µM)
[16]
  MIC: 2 µg/mL (≈ 3.28 µM)
[17]
  MIC: 2 µg/mL (≈ 3.28 µM)
[18]
  MIC: 0.063 µg/mL (≈ 0.103 µM)
[19]
  MIC: 0.031 µg/mL (≈ 0.0508 µM)
[20]
  MIC: 0.016 µg/mL (≈ 0.0262 µM)
[21]
  MIC: 0.031 µg/mL (≈ 0.0508 µM)
[22]
  MIC: 2 µg/mL (≈ 3.28 µM)
[23]
  MIC: 4 µg/mL (≈ 6.56 µM)
[24]
  MIC: 1 µg/mL (≈ 1.64 µM)
[25]
  MIC: > 128 µg/mL
[26]; 60 min, read-out: Plasma Conc.
  concentration at 1 h: 8700 ng/mL
[26]; 120 min, read-out: Plasma Conc.
  concentration at 2 h: 2700 ng/mL
[26]; two compartment model
  AUC: 43400 ng·h/mL
[26]; two compartment model, read-out: T1/2 (α)
  half-life: 6 min
[26]; two compartment model, read-out: T1/2 (β)
  half-life: 32 min
[27]; 1 min
  concentration at 1 min: 121000 ng/mL
[27]; 2.5 min
  concentration at 2.5 min: 92000 ng/mL
[27]; 5 min
  concentration at 5 min: 64000 ng/mL
[27]; 10 min
  concentration at 10 min: 48000 ng/mL
[27]; 20 min
  concentration at 20 min: 36000 ng/mL
[27]; 40 min
  concentration at 40 min: 15000 ng/mL

## CC(O/N=C(\C(=O)NC1C(=O)N2C(C(=O)[O-])=C(CSc3nc(N)cc(N)[n+]3N)CSC12)c1csc(N)n1)C(=O)O (centres unmarked) [Compound I-14]
[1]
  MIC: 2 µg/mL (≈ 3.28 µM)
[2]
  MIC: 64 µg/mL (≈ 105 µM)
[3]
  MIC: 0.5 µg/mL (≈ 0.819 µM)
[4]
  MIC: 0.031 µg/mL (≈ 0.0508 µM)
[5]
  MIC: 0.5 µg/mL (≈ 0.819 µM)
[6]
  MIC: ≤ 0.008 µg/mL
[7]
  MIC: 0.031 µg/mL (≈ 0.0508 µM)
[8]
  MIC: 0.031 µg/mL (≈ 0.0508 µM)
[9]
  MIC: 0.031 µg/mL (≈ 0.0508 µM)
[10]
  MIC: 0.5 µg/mL (≈ 0.819 µM)
[11]
  MIC: ≤ 0.008 µg/mL
[12]
  MIC: 0.031 µg/mL (≈ 0.0508 µM)
[13]
  MIC: 0.031 µg/mL (≈ 0.0508 µM)
[14]
  MIC: ≤ 0.008 µg/mL
[15]
  MIC: 2 µg/mL (≈ 3.28 µM)
[16]
  MIC: 1 µg/mL (≈ 1.64 µM)
[17]
  MIC: 1 µg/mL (≈ 1.64 µM)
[18]
  MIC: 0.13 µg/mL (≈ 0.213 µM)
[19]
  MIC: 0.031 µg/mL (≈ 0.0508 µM)
[20]
  MIC: 0.031 µg/mL (≈ 0.0508 µM)
[21]
  MIC: 0.016 µg/mL (≈ 0.0262 µM)
[22]
  MIC: 2 µg/mL (≈ 3.28 µM)
[23]
  MIC: 4 µg/mL (≈ 6.55 µM)
[24]
  MIC: 1 µg/mL (≈ 1.64 µM)
[25]
  MIC: > 128 µg/mL
Escherichia coli
  MIC50: 0.031 µg/mL (≈ 0.0508 µM)
  MIC90: 0.063 µg/mL (≈ 0.103 µM)
Klebsiella pneumoniae
  MIC50: 0.031 µg/mL (≈ 0.0508 µM)
Klebsiella pneumoniae; read-out: MIC 90%
  MIC90: 0.063 µg/mL (≈ 0.103 µM)
[28]
  MIC50: 4 µg/mL (≈ 6.55 µM)
[28]; read-out: MIC 90%
  MIC90: 4 µg/mL (≈ 6.55 µM)
[29]
  MIC50: > 128 µg/mL
[29]; read-out: MIC 90%
  MIC90: > 128 µg/mL
Pseudomonas aeruginosa
  MIC50: 1 µg/mL (≈ 1.64 µM)
Pseudomonas aeruginosa; read-out: MIC 90%
  MIC90: 4 µg/mL (≈ 6.55 µM)
